# From BindingDB's records for doi:10.1021/cb600311v (University of California San Francisco, 2006)
# How the values were obtained:
# [1] = biological target: T1, Thyroid hormone receptor alpha (Homo sapiens, UniProt P10827); experiment: Competition Binding Assay
# T1 sequence (P10827 whole entry): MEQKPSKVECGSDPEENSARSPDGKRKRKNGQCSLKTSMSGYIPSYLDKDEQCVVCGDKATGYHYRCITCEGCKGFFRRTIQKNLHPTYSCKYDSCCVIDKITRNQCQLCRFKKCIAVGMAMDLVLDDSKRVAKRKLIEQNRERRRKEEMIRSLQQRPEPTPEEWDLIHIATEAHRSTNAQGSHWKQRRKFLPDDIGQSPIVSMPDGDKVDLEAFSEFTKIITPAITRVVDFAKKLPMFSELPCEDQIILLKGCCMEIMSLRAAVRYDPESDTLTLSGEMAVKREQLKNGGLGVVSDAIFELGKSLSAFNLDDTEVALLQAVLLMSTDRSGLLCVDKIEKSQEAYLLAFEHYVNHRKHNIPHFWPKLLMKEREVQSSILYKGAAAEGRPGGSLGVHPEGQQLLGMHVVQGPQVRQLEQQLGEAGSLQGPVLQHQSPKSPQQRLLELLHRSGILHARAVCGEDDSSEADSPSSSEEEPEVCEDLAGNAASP
# Source text: (§1) Thyroid hormone competitive binding assay using TNT T7 quick-coupled transcription translation system from promega.
# [2] = biological target: T2, Thyroid hormone receptor beta (Homo sapiens, UniProt P10828); experiment: Competition Binding Assay
# T2 sequence (P10828 whole entry): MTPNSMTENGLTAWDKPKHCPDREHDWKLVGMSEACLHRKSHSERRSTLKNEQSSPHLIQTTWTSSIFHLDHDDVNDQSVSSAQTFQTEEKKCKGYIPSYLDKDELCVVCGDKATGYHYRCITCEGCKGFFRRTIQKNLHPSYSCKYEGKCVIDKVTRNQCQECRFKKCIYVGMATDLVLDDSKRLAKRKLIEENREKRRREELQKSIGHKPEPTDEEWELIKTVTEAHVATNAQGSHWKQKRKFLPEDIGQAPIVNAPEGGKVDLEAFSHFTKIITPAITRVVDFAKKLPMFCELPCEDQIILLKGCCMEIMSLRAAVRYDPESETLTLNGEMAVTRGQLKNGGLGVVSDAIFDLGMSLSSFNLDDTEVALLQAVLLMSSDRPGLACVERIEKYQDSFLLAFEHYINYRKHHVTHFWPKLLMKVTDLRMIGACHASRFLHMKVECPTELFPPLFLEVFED
# Source text: as §1
# [3] = biological target: T1, Thyroid hormone receptor alpha; experiment: Transactivation Assay in U2OS cells
# Source text: TRE-driven dual-luciferase reporter assay in human bone osteosarcoma epithelial (U2OS) cell line.
SMILES,Kd [1],Kd [2],EC50 [3]
CC(C)c1cc(Oc2c(I)cc(Cc3[nH]c(=O)[nH]c3O)cc2I)ccc1O,1.2 nM,1.7 nM,34 nM
Cc1cc(Cc2[nH]c(=O)[nH]c2O)cc(C)c1Oc1ccc(O)c(C(C)C)c1 [CO22],286 nM,280 nM,3870 nM
